Results on ten molecules are retold here after patent US20230374112A1, “Bioactive Collagen Peptides, Method Of Production Thereof, And Use Thereof” (CORPORATION GENACOL CANADA INC., priority 2020, published 2023).

The conditions of series [1]: cited from earlier work.
The subject of series [2] is HIEC-6/HepG2 cell coculture system.
Method: Based on the daily dose used in the clinical trials and the current recommendations of the bottle, 1200 mg of Genacol CH product (bovine) or a generic CH product (bovine) was added (3% w/v) to sterile ddH2O (Bernado & Azarcon, 2012; Bruyère et al., 2012; Feliciano et al., 2017). Three independent digestions for each CH product were completed. The vessels were placed in a 37° C. water bath, with continuous agitation. A pepsin solution was added, the pH adjusted to 2 and incubated for 30 min. Then, a bile solution was added, the pH adjusted to 7.5 and incubated for 90 min at 37° C. Pepsin (4% w/w protein basis) and pancreatin (4% w/w protein basis) were added (Aleman et al., 2013). The pancreatin digestion was stopped with the addition of NaOH, until the pH was 10 and the resulting digesta was cooled and frozen at −80° C. Digesta subsamples were taken and filtered using 0.2 μm syringe filters.
The final digesta was filtered using a molecular weight cut off (MWCO) of 10 kDa in a stirred Amicon™ ultrafiltration membrane reactor at 4° C. under a nitrogen gas pressure of 40 psi (Iskandar et al., 2015). The filtrates were freeze-dried at −50 to −60° C. and 0.85 mBar (0.64 mm Hg) (Gamma 1-16 LSC, Christ, Osterode am Harz, Germany) and stored at −80° C. until used in cell culture.
Two bovine-sourced CH products were used: Original Formula® (Genacol, Blainville, QC) (CH-GL) and a generic brand (such as Selection™, Uniprix, Quebec, Canada) (CH-GR). HIEC-6 (ATCC® CRL-3266™) and Hep G2 (ATCC® HB-8065™) cells were purchased from ATCC to represent the gastrointestinal and liver wall lining, respectively. HIEC-6 cells were cultured using OptiMEM™ 1 Reduced Serum Medium (Gibco Catalog No. 31985) with 20 mM HEPES, 10 mM GlutaMAX™ (Gibco Catalog No. 35050), 10 ng/mL Epidermal Growth Factor, 4% fetal bovine serum (FBS). HepG2 cells were grown using ATCC-formulated Eagle's Minimum Essential Medium (Catalog No. 30-2003), with 10% FBS. Cells were maintained at 37° C. with 90% relative humidity (RH) and 5% C02 in culture medium as described herein.
HIEC-6/HepG2 cell coculture system was used to determine the bioavailability of key bioactive peptides from CHs after digestion. HIEC-6 and HepG2 cells were cultured separately but then later combined in a transwell system.
HIEC-6 cells were seeded onto 24-well polyester (PET) ThinCert™ inserts from Greiner Bio-One (Kremsmünster, Austria) at a density of 1×10^5 cells/well. The medium was changed every 2 days and the cells were grown for a total of 8-9 days. Transepithelial electrical resistance (TEER) was measured using a volt-ohmmeter to assess integrity of monolayer. […] Three individual plate experiments were completed for each CH product.
At time 0, the apical medium was replaced with medium containing 2 mg/ml of freeze-dried CH dissolved in medium using either the Genacol (GL) peptide or the Generic (GR) CH products. HepG2 cells were added to the basolateral side of the transwell (1 million cells/mL). The plates were incubated for 2 h at 37° C., 5% C02. Subsamples were taken at time 0, and after 2 h.
Another series deals with Caco-2 cells. The following applies: cited from earlier work.
For series [3] the following is noted: human, in vivo, po, 80 mg/kg; cited from earlier work.
In series [4] the target is dipeptidyl peptidase-4 (DPP-IV) (Homo sapiens, UniProt P27487). The following applies: literature; cited from earlier work.
Sequence of dipeptidyl peptidase-4 (DPP-IV) (P27487 whole entry, species assumed): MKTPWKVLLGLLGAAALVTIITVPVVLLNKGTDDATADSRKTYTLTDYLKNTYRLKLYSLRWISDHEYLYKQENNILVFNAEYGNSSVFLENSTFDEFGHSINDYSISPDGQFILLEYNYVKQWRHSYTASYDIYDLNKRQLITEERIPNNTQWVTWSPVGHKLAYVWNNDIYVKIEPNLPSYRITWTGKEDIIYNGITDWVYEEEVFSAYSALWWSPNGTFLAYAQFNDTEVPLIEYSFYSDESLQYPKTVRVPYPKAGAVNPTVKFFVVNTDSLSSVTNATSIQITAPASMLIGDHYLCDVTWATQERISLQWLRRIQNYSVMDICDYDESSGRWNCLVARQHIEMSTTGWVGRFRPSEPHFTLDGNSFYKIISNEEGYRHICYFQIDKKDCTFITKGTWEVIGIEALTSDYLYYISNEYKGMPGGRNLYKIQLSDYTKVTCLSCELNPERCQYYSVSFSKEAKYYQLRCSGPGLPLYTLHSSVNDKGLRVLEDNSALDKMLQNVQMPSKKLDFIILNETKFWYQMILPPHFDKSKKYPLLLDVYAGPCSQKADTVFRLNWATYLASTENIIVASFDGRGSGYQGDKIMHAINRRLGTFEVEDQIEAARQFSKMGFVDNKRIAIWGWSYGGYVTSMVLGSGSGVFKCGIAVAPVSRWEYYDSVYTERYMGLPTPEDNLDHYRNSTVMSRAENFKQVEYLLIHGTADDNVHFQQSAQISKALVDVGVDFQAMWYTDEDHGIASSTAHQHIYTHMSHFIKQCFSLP

Like-named read-outs stand apart in the source and are kept apart here. Non-standard residues stand in square brackets, D forms with d. Residues, ends and D or L forms follow the SMILES beside them. No end group written: not given here. Hyp = O=C(O)[C@@H]1C[C@@H](O)CN1

Take YPY: the permeability in series [1] (not told) is listed as 5.56%.
As for `O=C(O)[C@@H]1C[C@@H](O)CN1C(=O)[C@@H]1CCCN1` [Pro-Hyp] (H-Pro-[Hyp]-OH; N-terminus and C-terminus assumed), the “Peptide concentration, Basolateral T0” value in series [2] came to 0 ± 0 µg/mL.
The same measure, in the same setting: then `NCC(=O)N1CCC[C@H]1C(=O)O` [Gly-Pro] (H-Gly-Pro-OH; N-terminus and C-terminus assumed), with 0 ± 0 µg/mL.
Turning to HLPLP, the permeability in series [1] (not told) is 0.018%.
Regarding `C[C@H](N)C(=O)N1C[C@H](O)C[C@H]1C(=O)O` [Ala-Hyp] (H-Ala-[Hyp]-OH; N-terminus and C-terminus assumed), the “Peptide concentration, Basolateral T0” value in series [2] was 0 ± 0 µg/mL.
For `NCC(=O)N1CCC[C@H]1C(=O)N1C[C@H](O)C[C@H]1C(=O)O` [Gly-Pro-Hyp] (H-Gly-Pro-[Hyp]-OH; N-terminus and C-terminus assumed), the “Peptide concentration, Basolateral T0” value in series [2] came out at 0 ± 0 µg/mL. Further, in the series with Caco-2 cells, the “percentage transported across the cell monolayer” value was 3.59%. For the same molecule, in series [3], the “greatest content found in the blood” value is roughly 22 µM and the “time of peak blood content” value is recorded as 1 h.
SDK: the permeability in series [1] (not told) is reported as 21.68%.
Turning to LPYPY, the permeability in series [1] (milk-derived peptides, literature) is recorded as 0.05%.
As for Gly-Ala-[Hyp], the “activity against DPP-IV” value in series [4] is “only Gly-Pro-Hyp showed any activity”.
As for Gly-Pro-Ala, the “activity against DPP-IV” value in series [4] was “only Gly-Pro-Hyp showed any activity”.
